In patent US9783552B2, “Soluble guanylate cyclase activators” (MERCK SHARP & DOHME CORP., priority 2013, dated 2017) one finds EC50 and Emax data, which are given here for 17 compounds.

In the assay the target is T1, sGC α1/β1 heterodimer (Homo sapiens, UniProt Q02108+Q02153).
T1 construct: expressed in transfected cells
T1 sequence (Q02108 1-690): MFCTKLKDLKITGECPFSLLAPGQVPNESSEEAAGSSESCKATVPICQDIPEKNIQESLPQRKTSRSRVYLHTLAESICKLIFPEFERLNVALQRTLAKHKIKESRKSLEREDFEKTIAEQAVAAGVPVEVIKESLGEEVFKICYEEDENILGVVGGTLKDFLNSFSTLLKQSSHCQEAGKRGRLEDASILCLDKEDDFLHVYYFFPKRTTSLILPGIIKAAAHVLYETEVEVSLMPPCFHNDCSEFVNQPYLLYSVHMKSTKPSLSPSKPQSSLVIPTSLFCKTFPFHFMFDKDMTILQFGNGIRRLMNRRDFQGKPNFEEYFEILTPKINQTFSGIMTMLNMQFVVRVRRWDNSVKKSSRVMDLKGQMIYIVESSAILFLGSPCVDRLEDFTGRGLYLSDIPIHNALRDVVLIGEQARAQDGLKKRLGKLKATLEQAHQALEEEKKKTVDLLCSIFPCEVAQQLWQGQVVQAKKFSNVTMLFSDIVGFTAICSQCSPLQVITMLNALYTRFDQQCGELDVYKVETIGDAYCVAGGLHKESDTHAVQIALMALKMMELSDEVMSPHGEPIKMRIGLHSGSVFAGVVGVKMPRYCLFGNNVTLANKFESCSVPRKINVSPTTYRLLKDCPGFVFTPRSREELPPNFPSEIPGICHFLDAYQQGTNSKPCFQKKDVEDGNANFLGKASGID
T1 sequence (Q02153 1-619): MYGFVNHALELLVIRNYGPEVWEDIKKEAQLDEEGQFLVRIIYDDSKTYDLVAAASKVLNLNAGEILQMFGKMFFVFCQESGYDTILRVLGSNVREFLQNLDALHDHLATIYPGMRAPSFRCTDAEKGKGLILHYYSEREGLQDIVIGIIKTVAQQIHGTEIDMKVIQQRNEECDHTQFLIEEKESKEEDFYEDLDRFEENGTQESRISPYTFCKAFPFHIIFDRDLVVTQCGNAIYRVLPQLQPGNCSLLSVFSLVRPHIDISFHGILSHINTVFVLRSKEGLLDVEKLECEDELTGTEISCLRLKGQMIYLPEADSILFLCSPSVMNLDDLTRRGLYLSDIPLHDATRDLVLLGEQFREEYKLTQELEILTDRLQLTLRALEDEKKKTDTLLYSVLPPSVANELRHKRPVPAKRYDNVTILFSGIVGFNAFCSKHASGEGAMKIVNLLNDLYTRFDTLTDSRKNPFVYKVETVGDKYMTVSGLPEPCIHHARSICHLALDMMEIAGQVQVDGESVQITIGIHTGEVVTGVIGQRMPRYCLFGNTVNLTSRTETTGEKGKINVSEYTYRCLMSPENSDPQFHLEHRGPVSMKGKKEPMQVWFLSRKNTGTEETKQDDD
The assay can be described thus: Cell-Based sGC Functional Assay (CASA Assay). To be noted: CHO-K1/sGC cells; for EC50: intracellular cGMP by HTRF, 1 hr at 37° C., IP from 4P fit, presence or absence of 1 μM DETA-NO not given; for Emax: cGMP as percentage of maximum cGMP production of Compound A (=100% activation), read-out: % ACT (percent activation). In short, it runs like this: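 CHO-K1 cells stably expressing human sGC α1/β1 were incubated with compound (2.5% DMSO) for 1 hr at 37 °C with 0.5 mM IBMX, with or without 1 μM DETA-NO. Intracellular cGMP was measured by HTRF and expressed as % of the maximal cGMP produced by a reference sGC heme-dependent activator. IP and maximum fold induction came from a 4-parameter fit.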

On to `Cn1ncc2c(-c3nc(N)c4c(n3)NC(=O)C4(C)N)nc(CCC(F)(F)C(F)(F)F)nc21` (single isomer, unassigned) [Example 50, 4,5-Diamino-5-methyl-2-(1-methyl-6-(3,3,4,4,4-pentafluorobutyl)-1H-pyrazolo[3,4-d]pyrimidin-4-yl)-5H-pyrrolo[2,3-d]pyrimidin-6(7H)-one], for which the EC50 was 1240 nM and the Emax was 101%.

In the case of `COC1(C)C(=O)Nc2nc(-c3nc(CCC(F)(F)C(F)(F)F)nc4c3cnn4C)nc(N)c21` (single isomer, unassigned) [Example 56, 4-Amino-5-methoxy-5-methyl-2-(1-methyl-6-(3,3,4,4,4-pentafluorobutyl)-1H-pyrazolo[3,4-d]pyrimidin-4-yl)-5H-pyrrolo[2,3-d]pyrimidin-6(7H)-one], the response was half-maximal at 44 nM (EC50) and the Emax was 104%.

Regarding `Cn1nc(Cl)c2c(-c3nc(N)c4c(n3)NC(=O)C4(C)c3ccc(F)cc3)nc(CCC(F)(F)C(F)(F)F)nc21` (single isomer, unassigned) [Example 58, 4-Amino-2-(3-chloro-1-methyl-6-(3,3,4,4,4-pentafluorobutyl)-1H-pyrazolo[3,4-d]pyrimidin-4-yl)-5-(4-fluorophenyl)-5-methyl-5H-pyrrolo[2,3-d]pyrimidin-6(7H)-one], it took 632 nM to reach a half-maximal effect (EC50) and the Emax was determined as 70%.

As to `[2H]C([2H])([2H])n1ccc2c(-c3nc(N)c4c(n3)NC(=O)C4(C)c3ccccc3)nc(CCC(F)(F)C(F)(F)F)nc21` (single isomer, unassigned) [Example 60, 4-Amino-5-methyl-2′-(3,3,4,4,4-pentafluorobutyl)-5-phenyl-7′-trideuteriomethyl-5H,7′H-[2,4′-bipyrrolo[2,3-d]pyrimidin]-6(7H)-one], the EC50 worked out at 47 nM and the Emax was 106%.

As to `Cn1ccc2c(-c3nc(N)c4c(n3)NC(=O)C4(C)c3ccccc3)nc(Cc3cccc(F)c3F)nc21` (single isomer, unassigned) [Example 64, 4-Amino-2′-(2,3-difluorobenzyl)-5,7′-dimethyl-5-phenyl-5H,7′H-[2,4′-bipyrrolo[2,3-d]pyrimidin]-6(7H)-one], the EC50 was determined as 12 nM and the Emax is 83%.

On to `CC1(c2ccccc2)C(=O)Nc2nc(-c3nc(CCC(F)(F)C(F)(F)F)nc4[nH]ccc34)nc(N)c21` (single isomer, unassigned) [Example 65, 4-Amino-5-methyl-2′-(3,3,4,4,4-pentafluorobutyl)-5-phenyl-5H,7′H-[2,4′-bipyrrolo[2,3-d]pyrimidin]-6(7H)-one], for which the EC50 worked out at 255 nM and the Emax amounted to 102%.

On to `Cn1nnc2c(-c3nc(N)c4c(n3)NC(=O)C4(C)c3ccc(F)cc3)nc(Cc3cccc(F)c3F)nc21` (single isomer, unassigned) [Example 66], for which the 50% effective concentration (EC50) was 156 nM and the Emax worked out at 69%.

`[2H]C([2H])([2H])n1nnc2c(-c3nc(N)c4c(n3)NC(=O)C4(C)c3ccccc3)nc(CCC(F)(F)C(F)(F)F)nc21` (single isomer, unassigned) [Example 68, 4-Amino-5-methyl-2-(5-(3,3,4,4,4-pentafluorobutyl-3-trideuteriomethyl)-3H-[1,2,3]triazolo[4,5-d]pyrimidin-7-yl)-5-phenyl-5H-pyrrolo[2,3-d]pyrimidin-6(7H)-one]: a half-maximal effect (EC50) was put at 403 nM and the Emax amounted to 107%.

Consider `[2H]C([2H])([2H])n1nnc2c(-c3nc(N)c4c(n3)NC(=O)C4(C)c3ccc(Cl)cc3)nc(CCC(F)(F)C(F)(F)F)nc21` (single isomer, unassigned) [Example 70, 4-Amino-5-(4-chlorophenyl)-5-methyl-2-(5-(3,3,4,4,4-pentafluorobutyl-3-trideuteriomethyl)-3H-[1,2,3]triazolo[4,5-d]pyrimidin-7-yl)-5H-pyrrolo[2,3-d]pyrimidin-6(7H)-one], for which the EC50 worked out at 327 nM and the Emax stood at 95%.

In the case of `[2H]C([2H])([2H])n1nnc2c(-c3nc(N)c4c(n3)NC(=O)C4(C)c3ccc(F)c(OC)c3)nc(CCC(F)(F)C(F)(F)F)nc21` (single isomer, unassigned) [Example 72, 4-Amino-5-(4-fluoro-3-methoxyphenyl)-5-methyl-2-(5-(3,3,4,4,4-pentafluorobutyl-3-trideuteriomethyl)-3H-[1,2,3]triazolo[4,5-d]pyrimidin-7-yl)-5H-pyrrolo[2,3-d]pyrimidin-6(7H)-one], a half-maximal effect (EC50) was put at 424 nM and the Emax came out at 66%.

`[2H]C([2H])([2H])n1ncc2c(-c3nc(N)c4c(n3)NC(=O)C4(C)c3cccc(O)c3)nc(CCC(F)(F)C(F)(F)F)nc21` (stereo not shown) [Example 44, 4-Amino-5-(3-hydroxyphenyl)-5-methyl-2-(6-(3,3,4,4,4-pentafluorobutyl)-1-trideuteriomethyl-1H-pyrazolo[3,4-d]pyrimidin-4-yl)-5H-pyrrolo[2,3-d]pyrimidin-6(7H)-one]: the EC50 was 111 nM and the Emax is 88%.

On to `[2H]C([2H])([2H])n1ncc2c(-c3nc(O)c4c(n3)NC(=O)C4(C)c3ccc(F)cc3)nc(CCC(F)(F)C(F)(F)F)nc21` (stereo not shown) [Example 48, 5-(4-Fluorophenyl)-4-hydroxy-5-methyl-2-(6-(3,3,4,4,4-pentafluorobutyl)-1-trideuteriomethyl-1H-pyrazolo[3,4-d]pyrimidin-4-yl)-5H-pyrrolo[2,3-d]pyrimidin-6(7H)-one], for which the EC50 came to 664 nM and the Emax worked out at 93%.

Take `Cn1ncc2c(-c3nc(N)c4c(n3)NC(=O)C4(C)NC(=O)c3ccccn3)nc(CCC(F)(F)C(F)(F)F)nc21` (stereo not shown) [Example 51, N-(4-Amino-5-methyl-2-(1-methyl-6-(3,3,4,4,4-pentafluorobutyl)-1H-pyrazolo[3,4-d]pyrimidin-4-yl)-6-oxo-6,7-dihydro-5H-pyrrolo[2,3-d]pyrimidin-5-yl)picolinamide]: the EC50 stood at 746 nM and the Emax worked out at 109%.

On to `Cn1ncc2c(-c3nc(N)c4c(n3)NC(=O)C4(C)NC(=O)CC3CC3)nc(CCC(F)(F)C(F)(F)F)nc21` (stereo not shown) [Example 52, N-(4-Amino-5-methyl-2-(1-methyl-6-(3,3,4,4,4-pentafluorobutyl)-1H-pyrazolo[3,4-d]pyrimidin-4-yl)-6-oxo-6,7-dihydro-5H-pyrrolo[2,3-d]pyrimidin-5-yl)-2-cyclopropylacetamide], for which a half-maximal response (EC50) required 614 nM and the Emax worked out at 92%.

Regarding `Cn1ncc2c(-c3nc(N)c4c(n3)NC(=O)C4(C)NC(=O)C3CC3)nc(CCC(F)(F)C(F)(F)F)nc21` (stereo not shown) [Example 53, N-(4-Amino-5-methyl-2-(1-methyl-6-(3,3,4,4,4-pentafluorobutyl)-1H-pyrazolo[3,4-d]pyrimidin-4-yl)-6-oxo-6,7-dihydro-5H-pyrrolo[2,3-d]pyrimidin-5-yl)cyclopropanecarboxamide], the EC50 came out at 869 nM and the Emax is 104%.

Regarding `Cn1ncc2c(-c3nc(N)c4c(n3)NC(=O)C4(C)NCC3CC3)nc(CCC(F)(F)C(F)(F)F)nc21` (stereo not shown) [Example 54, 4-Amino-5-((cyclopropylmethyl)amino)-5-methyl-2-(1-methyl-6-(3,3,4,4,4-pentafluorobutyl)-1H-pyrazolo[3,4-d]pyrimidin-4-yl)-5H-pyrrolo[2,3-d]pyrimidin-6(7H)-one], the EC50 turned out to be 87 nM and the Emax is 118%.

For `CC(C)NC1(C)C(=O)Nc2nc(-c3nc(CCC(F)(F)C(F)(F)F)nc4c3cnn4C)nc(N)c21` (stereo not shown) [Example 55, 4-Amino-5-(isopropylamino)-5-methyl-2-(1-methyl-6-(3,3,4,4,4-pentafluorobutyl)-1H-pyrazolo[3,4-d]pyrimidin-4-yl)-5H-pyrrolo[2,3-d]pyrimidin-6(7H)-one], the EC50 was determined as 119 nM and the Emax amounted to 118%.
